Publication PMC9400227, “αvβ3 integrin-specific exosomes engineered with cyclopeptide for targeted delivery of triptolide against malignant melanoma” (Journal of Nanobiotechnology, 2022)
Values after ≈ are worked out from the molar mass of the structure shown.

Tests used:
[1] = mouse, in vivo
Procedure: Briefly, the mouse bodyweight of all groups was recorded throughout the treatment period. To evaluate systemic safety, after the termination of treatment, the tissues of the heart, liver, spleen, lung, and kidney were collected to calculate organ indexes [mass of the organ (mg)/bodyweight (g)] and to stain for H&E. In addition, orbital blood was sampled for a routine blood test, hepatic function test and renal function test, including RBC, WBC, ALT, and Cr.

[2] = In vivo antitumor efficacy in A375 xenograft tumor model; settings: tumor-bearing mice, Kaplan–Meier; control 25.5 days
[3] = Plasma pharmacokinetics in tumor-bearing mice; settings: nude, mouse, in vivo, iv, 600 ug/kg
Procedure: The TP concentrations in blood, heart, liver, spleen, lung, kidney, and tumor tissues were also quantified over time. […] The preparations were injected intravenously at drug-equivalent doses of 600 μg/kg TP. After injection, blood was sampled from the orbital vein at 5 min, 10 min, 15 min, 30 min, 1 h, 2 h, 4 h, 6 h, and 24 h. In addition, heart, liver, spleen, lung, kidney, and tumor tissues were collected at 5 min, 30 min, 1 h, 2 h, 4 h, 6 h, and 24 h. Nine mice were sacrificed at each time point (n = 3), whereas at 10 min and 15 min, the mice were only taken for blood and were not killed. The TP concentration in plasma and tissue homogenate was analyzed with UHPLC-MS/MS.
TP concentrations in cells, plasma, primary organs, and tumors were analyzed using UHPLC-MS/MS (Thermo Fisher Scientific, CA, USA). The separation was performed on an ACQUITY UPLCTM BEH C18 column (2.1 × 100 mm, i.d., 1.7 μm). The column temperature was maintained at 40 °C. The mobile phases were 1% acetic acid aqueous solution (A) and methanol (B). Isocratic elution with 40% A and 60% B was adopted at a flow rate of […]. The temperature and flow rate of dry gas (N2) were 350 °C and 8 L/min, respectively. The pressure of the nebulizer gas (N2) was 40 psi. The capillary voltage was […]. The positive multiple reaction monitoring (MRM) mode was adopted to determine TP and carbamazepine (internal standard, IS). The collision energy was 33 eV for both TP and IS. The precursor-to-product transitions were m/z 361.1 → 105.2 for TP and m/z 237.1 → 194.0 for IS.

A375 cells [4] = assay: CCK-8 cytotoxicity assay; format: cell-based; settings: Homo sapiens, A-375, 24 h
Procedure: A375 cells were incubated with different concentrations of TP for 24 h. After that, 10 μL of CCK-8 was added to the treated cells and incubated for another 20 min. The absorbance was detected using a microplate reader.

A375 cells [5] = assay: Cell apoptosis assay (Annexin V-APC/7-AAD flow cytometry); settings: 24 h
Procedure: Then, the cells were trypsinized by pancreatic enzymes without DMSO and resuspended in 500 μL 1× Binding Buffer. The cell suspension was stationarily cultured at room temperature for 15 min in the dark after adding 7-AAD and Annexin V-APC. Subsequently, cell apoptosis and necrosis were detected with a flow cytometer.

A375 cells [6] = assay: Cell cycle assay (PI staining); format: cell-based, human; settings: 24 h
Procedure: The cell cycle assay was carried out to explore the correlation between mitosis and cytotoxicity. […] The treated cells were then fixed with 70% ethanol for 12 h, washed with PBS 3 times, and stained with propidium iodide/RNase A for 30 min. After that, the red fluorescence of differently treated cells was recorded at 488 nm, and the DNA content of cells was also analyzed.

A375 cells [7] = assay: Transwell invasion assay; format: cell-based, human; settings: A375 cells pretreated 6 h, Transwell with Matrigel 24 h
Procedure: Then, the differently treated cells were incubated in the apical Transwell insert (24-well plant covered with Matrigel polycarbonate membranes, pore size 8 μm). Meanwhile, 800 μL of DMEM with 10% FBS used for cell chemotaxis was added to the basolateral champers. After incubation for 24 h, the cells on the top side of the apical chamber were wiped, and then the migrated cells were fixed with 4% paraformaldehyde and stained with 0.1% crystal violet. After that, five random fields under an inverted microscope were visualized, and the migrated cells were counted by ImageJ software.

malignant melanoma = test system: malignant melanoma; set-up: method as in PMID 31564801; settings: chemotherapeutic drug for MM; cited from earlier work

SMILES	ALT (alanine aminotransferase) [1] [U/L]	Cr (creatinine) [1] [µmol/L]	H&E staining of normal tissues [1]	RBC (red blood cell) [1]	WBC (white blood cell) [1]	mice bodyweight during the treatment period [1]	organ indexes versus control [1]	mean survival time [2] [days]	AUC(0-inf) [3] [ng·h/mL]	Cmax [3] [ng/mL]	MRT [3] [min]	clearance [3] [mL/min/kg]	half-life [3] [min]	IC50 (A375 cells [4]) [µg/mL]	apoptosis and necrosis (mortal cells) (A375 cells [5]) [%]	cell population of the S phase (A375 cells [6]; control 8.07 ± 0.39%) [%]	cell population of the G0/G1 phase (A375 cells [6]; control 88.91 ± 0.81%) [%]	invasion inhibition rate (A375 cells [7]) [%]	total effective rate (malignant melanoma)
CC(C)[C@]12O[C@H]1[C@@H]1O[C@]13[C@]1(O[C@H]1C[C@H]1C4=C(CC[C@@]13C)C(=O)OC4)[C@@H]2O [TP, triptolide]	76.25 ± 4.03	27.76 ± 1.52	heart, liver, and kidney were damaged	8.11 ± 0.65 × 10^12/L	6.73 ± 0.51 × 10^9/L	suffered a bodyweight loss	significantly lower than those of the control mice	29.5	1400 ± 81.4	612 ± 100	3.6 ± 1.8	36.6	18.6 ± 3.6	0.0696 (≈ 0.193 µM)	22.10 ± 1.66	17.73 ± 0.79	72.87 ± 3.71	45.54 ± 6.35	
CN(C)/N=N/c1[nH]cnc1C(N)=O [dacarbazine]																			10–15%
